# Experimental data: ChEMBL document CHEMBL1138737, “High-resolution structures of human aldose reductase holoenzyme in complex with stereoisomers of the potent inhibitor Fidarestat: stereospecific interaction between the enzyme and a cyclic imide type inhibitor” (J Med Chem, 2004)
# Molecular target: Aldo-keto reductase family 1 member B1 (Homo sapiens, UniProt P15121)
# Test: Binding affinity for human Aldose reductase 2 expressed in Escherichia coli
row,IC50 [µM],Compound
1,11,"NC(=O)[C@@H]1C[C@@]2(NC(=O)NC2=O)c2cc(F)ccc2O1 [(S,R)-FIDARESTAT]"
2,40,NC(=O)[C@H]1C[C@@]2(NC(=O)NC2=O)c2cc(F)ccc2O1 (mixture of isomers)
3,0.57,"NC(=O)[C@H]1C[C@]2(NC(=O)NC2=O)c2cc(F)ccc2O1 [(R,S)-FIDARESTAT]"
4,0.03,NC(=O)[C@@H]1C[C@]2(NC(=O)NC2=O)c2cc(F)ccc2O1 [FIDARESTAT]
